Laboratory results taken from PubChem BioAssay AID248 (DTP/NCI, 2004).
Inconclusive results and toxic doses are left out. No stated cut-off is given here; in the data, active means T/C of 150% or more; inactive means T/C below 125%.

Tested on: L1210 leukemia ip in BDF1 mice, survival T/C
Assay: NCI In Vivo Anticancer Drug Screen. Data for tumor model L1210 Leukemia (intraperitoneal) in B6D2F1 (BDF1) mice
Conditions: endpoint: mean survival time, higher = longer survival
Outline: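 Value reflects the ratio of survival in compound-treated mice to survival in vehicle-treated controls, with both groups carrying the same transplanted tumor.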

Measured: T/C

COc1ccc(N2c3ccccc3-c3cc[nH]c(=O)c3[C@H]2O)cc1OC
inactive: dose: 12.5 mg/kg/injection, schedule: Q04DX003 (ip), vehicle: saline 93 % of control | dose: 25.0 mg/kg/injection, schedule: Q04DX003 (ip), vehicle: saline 101 % of control | dose: 50.0 mg/kg/injection, schedule: Q04DX003 (ip), vehicle: saline 91 % of control | dose: 75.0 mg/kg/injection, schedule: Q04DX003 (ip), vehicle: saline 99 % of control | dose: 115.0 mg/kg/injection, schedule: Q04DX003 (ip), vehicle: saline 105 % of control | dose: 170.0 mg/kg/injection, schedule: Q04DX003 (ip), vehicle: saline 94 % of control

O=c1[nH]c2ccccc2n1C1CCN(CCCS(=O)(=O)c2ccccc2)CC1
inactive: dose: 200.0 mg/kg/injection, schedule: Q04DX003 (ip), vehicle: gum acacia 91 % of control | dose: 400.0 mg/kg/injection, schedule: Q04DX003 (ip), vehicle: gum acacia 87 % of control

O=C1C2C3C=CC(CC3)C2C(=O)C2C3C=CC(C3)C12 (stereo not given)
inactive: dose: 100.0 mg/kg/injection, schedule: Q04DX002 (ip), vehicle: saline with Tween-80 101 % of control | dose: 200.0 mg/kg/injection, schedule: Q04DX002 (ip), vehicle: saline with Tween-80 93 % of control
